Experimental data reported in PubChem BioAssay (NCI).
Where “and” joins values, the source holds several entries; their conditions need not be identical. Equal values may be shown once.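 A five-concentration, 48-hour dose response in 96-well plates underlies each endpoint, interpolated linearly between surrounding concentrations. GI50: concentration for 50% inhibition of growth. TGI: concentration producing complete growth inhibition.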

What was measured:
Test in all cases: DTP human tumour cell line panel, 48 h
SNB-78 CNS = test system: SNB-78 CNS
DMS 273 small cell lung = test system: DMS 273 small cell lung
LXFL 529 NSCLC = test system: LXFL 529 NSCLC
DMS 114 small cell lung = test system: DMS 114 small cell lung
XF 498 CNS = test system: XF 498 CNS
HOP-18 NSCLC = test system: HOP-18 NSCLC
KM20L2 colon = test system: KM20L2 colon
RXF-631 renal = test system: RXF-631 renal
MDA-N = test system: MDA-N

`CC1=NN(C(=O)CC(=O)N(C(=O)c2ccccc2Cl)c2ccc(C)cc2)C(=O)C1N=Nc1ccc([N+](=O)[O-])cc1` (centres undefined) was tested, and the TGI (SNB-78 CNS) was > 100 µM, the TGI (DMS 273 small cell lung) was > 95.7 µM and the TGI (LXFL 529 NSCLC) was > 100 µM. For the same compound, the TGI (DMS 114 small cell lung) was > 60.5 µM, the TGI (XF 498 CNS) was > 100 µM and the TGI (HOP-18 NSCLC) was > 100 µM. For the same compound, the TGI (KM20L2 colon) was > 90.1 µM.

`Nc1nc(CCl)nc(Nc2ccccc2)n1` showed a TGI (DMS 273 small cell lung) of 14 µM, a TGI (LXFL 529 NSCLC) of 28.9 µM and a TGI (DMS 114 small cell lung) of 36.5 µM. The TGI (KM20L2 colon) was 35.9 µM.

`COC(=O)/C(C)=C/[N+](=O)[O-]` showed a TGI (SNB-78 CNS) of 49.8 µM, a TGI (DMS 273 small cell lung) of 34.6 µM and a TGI (LXFL 529 NSCLC) of 27.9 µM. It also gave a TGI (DMS 114 small cell lung) of 35.3 µM, a TGI (XF 498 CNS) of 27.5 µM and a TGI (HOP-18 NSCLC) of 31.9 µM. It also gave a TGI (KM20L2 colon) of 55.5 µM.

`COc1ccc(C2c3cc(OC)c(OC)cc3C(Cc3ccc([N+](=O)[O-])cc3)C2c2ccc([N+](=O)[O-])cc2)cc1OC` (centres undefined) was tested, and the TGI (SNB-78 CNS) was > 100 µM, the TGI (DMS 273 small cell lung) was > 100 µM and the TGI (LXFL 529 NSCLC) was > 100 µM. The TGI (DMS 114 small cell lung) was > 100 µM, the TGI (RXF-631 renal) was > 100 µM and the TGI (XF 498 CNS) was > 100 µM. The TGI (KM20L2 colon) was > 100 µM.

`COC(=O)/C(C=O)=C/Sc1ccccc1` was tested, and the TGI (SNB-78 CNS) was > 100 µM, the TGI (DMS 273 small cell lung) was 53.2 µM and the TGI (LXFL 529 NSCLC) was 78.9 µM. For the same compound, the TGI (DMS 114 small cell lung) was 41 µM, the TGI (RXF-631 renal) was 45.7 µM and the TGI (XF 498 CNS) was > 100 µM. The TGI (HOP-18 NSCLC) was > 100 µM and the TGI (KM20L2 colon) was 94.7 µM.

`[Au+].[Au+].[Au+].[c-]1nccn1Cc1ccccc1.[c-]1nccn1Cc1ccccc1.[c-]1nccn1Cc1ccccc1` gave a GI50 (SNB-78 CNS) of 2.84 µM, a TGI (SNB-78 CNS) of 8.63 µM and a GI50 (DMS 273 small cell lung) of 1.66 µM. It also gave a TGI (DMS 273 small cell lung) of 3.23 µM, a GI50 (LXFL 529 NSCLC) of 1.83 µM and a TGI (LXFL 529 NSCLC) of 3.22 µM. For the same compound, the GI50 (DMS 114 small cell lung) was 1.65 µM, the TGI (DMS 114 small cell lung) was 3.13 µM and the GI50 (XF 498 CNS) was 1.74 µM. It also gave a TGI (XF 498 CNS) of 3.13 µM, a GI50 (MDA-N) of 11.2 µM and a TGI (MDA-N) of 26.6 µM. The GI50 (HOP-18 NSCLC) was 2.87 µM, the TGI (HOP-18 NSCLC) was 8.77 µM and the GI50 (KM20L2 colon) was 26.9 µM. The TGI (KM20L2 colon) was > 73 µM.

For `C1C[OH+]CCNCC[OH+]CC[OH+]CCN1.[Cl-].[Pt+4]`, the GI50 (DMS 273 small cell lung) was > 100 µM, the TGI (DMS 273 small cell lung) was > 100 µM and the GI50 (LXFL 529 NSCLC) was > 100 µM. For the same compound, the TGI (LXFL 529 NSCLC) was > 100 µM, the GI50 (HOP-18 NSCLC) was > 100 µM and the TGI (HOP-18 NSCLC) was > 100 µM. For the same compound, the GI50 (KM20L2 colon) was > 100 µM and the TGI (KM20L2 colon) was > 100 µM.

With `CC(C)OC(=O)NNc1cc(Cl)ccc1Cl` the TGI (MDA-N) was > 100 µM.

For `N.N.N.N.[Cl-].[Co+3].[N-]=[N+]=[N-].[N-]=[N+]=[N-]`, the GI50 (SNB-78 CNS) was > 100 µM, the TGI (SNB-78 CNS) was > 100 µM and the GI50 (DMS 273 small cell lung) was > 100 µM. The TGI (DMS 273 small cell lung) was > 100 µM, the GI50 (LXFL 529 NSCLC) was > 100 µM and the TGI (LXFL 529 NSCLC) was > 100 µM. The GI50 (KM20L2 colon) was > 100 µM and the TGI (KM20L2 colon) was > 100 µM.

With `C=C1C(=O)O[C@H]2/C=C(/C)C3=CC(=O)[C@@](C)(C[C@@H](OC(=O)/C(C)=C\C)C12)O3` (some centres undefined) the TGI (MDA-N) was 6.24 µM.

In the case of `CC12CCCCC1(C)C2Sc1ccccc1` (centres undefined), the TGI (SNB-78 CNS) is reported as > 80.1 µM, the TGI (DMS 273 small cell lung) is reported as > 100 µM and the TGI (LXFL 529 NSCLC) is reported as > 100 µM. For the same compound, the TGI (DMS 114 small cell lung) was > 77.8 µM, the TGI (RXF-631 renal) was > 100 µM and the TGI (XF 498 CNS) was 66.3 µM. The TGI (HOP-18 NSCLC) was > 100 µM and the TGI (KM20L2 colon) was > 100 µM.

With `C[C@@]12CCCc3coc(c31)C(=O)c1cc3c(cc12)C(=O)C=CC3=O` the TGI (SNB-78 CNS) was > 1 µM, the TGI (DMS 273 small cell lung) was > 1 µM and the GI50 (LXFL 529 NSCLC) was > 1 µM. The TGI (LXFL 529 NSCLC) was > 1 µM and 28.2 µM, the GI50 (DMS 114 small cell lung) was > 1 µM and the TGI (DMS 114 small cell lung) was > 1 µM and 39.9 µM. For the same compound, the GI50 (XF 498 CNS) was > 1 µM, the TGI (XF 498 CNS) was > 1 µM and 29.6 µM and the GI50 (HOP-18 NSCLC) was > 1 µM. The TGI (HOP-18 NSCLC) was > 1 µM and 28.2 µM, the GI50 (KM20L2 colon) was > 1 µM and the TGI (KM20L2 colon) was > 1 µM and 35.1 µM.

In the case of `Cc1c(C2=C(Br)C(=O)N(C)C2=O)c(=O)n(C)c(=O)n1C`, the TGI (MDA-N) is reported as 77.8 µM.

In the case of `N=C(N)SCc1cccc(-c2nc3ccccc3c(=O)o2)c1`, the TGI (MDA-N) is reported as > 100 µM.

With `CC1(C)O/C(=C\c2ccccc2)C(=O)/C(=C/c2ccccc2)O1` the TGI (SNB-78 CNS) was > 100 µM, the TGI (DMS 273 small cell lung) was > 100 µM and the TGI (LXFL 529 NSCLC) was > 100 µM. For the same compound, the TGI (DMS 114 small cell lung) was 48.1 µM, the TGI (RXF-631 renal) was > 100 µM and the TGI (XF 498 CNS) was 54.4 µM. The TGI (HOP-18 NSCLC) was > 100 µM.

In the case of `CC(C)CNC(=O)O`, the TGI (MDA-N) is reported as > 100 µM.

For `Nc1ccn(C2(CO)C=C(CO)C(O)C2O)c(=O)n1` (centres undefined), the TGI (SNB-78 CNS) was > 25.8 µM, the TGI (DMS 273 small cell lung) was > 25.8 µM and the TGI (LXFL 529 NSCLC) was > 25.8 µM. For the same compound, the TGI (DMS 114 small cell lung) was > 25.8 µM, the TGI (HOP-18 NSCLC) was > 25.8 µM and the TGI (KM20L2 colon) was > 25.8 µM.

`CCOC(=N)CC(=O)Nc1cccc(C)c1C` was tested, and the TGI (SNB-78 CNS) was > 100 µM, the TGI (DMS 273 small cell lung) was > 100 µM and the TGI (LXFL 529 NSCLC) was > 100 µM. The TGI (RXF-631 renal) was > 100 µM, the TGI (XF 498 CNS) was > 100 µM and the TGI (KM20L2 colon) was > 100 µM.
